Experimental data from patent US4948782A, “A method of promoting the growth of domestic animals with erythromycin derivative containing composition” (Kitasato Kenkyusho, priority 1987, dated 1990).

Assays:
Format in all cases: cell-based
Bacillus subtilis = assay: MIC, Bacillus subtilis (BS); conditions: read-out: MIC BS
Bacillus cereus IFO 3001 = assay: MIC, Bacillus cereus IFO 3001 (BC); conditions: Bacillus cereus, IFO3001, Bacillus cereus IFO 3001; read-out: MIC BC
Escherichia coli NIHJ = assay: MIC, Escherichia coli NIHJ (EC)
[1] = test system: Klebsiella pneumoniae ATCC 10031; assay: MIC, Klebsiella pneumoniae ATCC 10031 (KP); conditions: ATCC10031; Klebsiella pneumoniae ATCC 10031; read-out: MIC KP
[2] = test system: Staphylococcus aureus ATCC 6538P; assay: MIC, Staphylococcus aureus ATCC 6538P (SA(1)); conditions: Staphylococcus aureus, ATCC6538P, Staphylococcus aureus ATCC 6538P; read-out: MIC SA (1)
Excerpt: (§1) The minimum inhibitory concentrations (MIC: mcg/ml) of the erythromycin derivatives of the present invention and the control erythromycin derivative (*) as the known growth promoting agent on typical test bacteria are shown in the following Tables 1 to 5.
SA(1): Staphylococcus aureus ATCC 6538P

[3] = test system: Staphylococcus aureus FDA 209P; assay: MIC, Staphylococcus aureus FDA 209P (SA(2)); conditions: Staphylococcus aureus, FDA209P, Staphylococcus aureus FDA 209P; read-out: MIC SA (2)
Excerpt: as §1
SA(2): Staphylococcus aureus FDA 209P

Row | SMILES | MIC (Bacillus subtilis) [µg/mL] | MIC (Bacillus cereus IFO 3001) [µg/mL] | MIC (Escherichia coli NIHJ) [µg/mL] | MIC [1] [µg/mL] | MIC [2] [µg/mL] | MIC [3] [µg/mL]
1 | CC[C@H]1OC(=O)[C@H](C)[C@@H](O[C@H]2C[C@@](C)(OC)[C@@H](O)[C@H](C)O2)[C@H](C)[C@@H](O[C@@H]2O[C@H](C)C[C@H]([N+](C)(C)Cc3ccccc3)[C@H]2O)[C@@]2(C)CC(C)C3(O[C@@]1(C)[C@H](O)[C@H]3C)O2 (stereo partly drawn) [Compound 73] | > 100 | > 100 | > 100 | > 100 | > 100 | > 100
2 | CCC1OC(=O)C(C)C(OC2CC(C)(OC)C(O)C(C)O2)C(C)C(OC2OC(C)CC(N)C2O)C2(C)CC(C)=C(O2)C(C)C(O)C1(C)O (stereo not drawn) [Compound 9] | > 100 | > 100 | > 100 | > 100 | > 100 | > 100
3 | CCNC1CC(C)OC(OC2C(C)C(OC3CC(C)(OC)C(O)C(C)O3)C(C)C(=O)OC(CC)C(C)(O)C(O)C(C)C3=C(C)CC2(C)O3)C1O (stereo not drawn) [Compound 21] | > 100 | > 100 | > 100 | > 100 | > 100 | > 100
4 | CCC1OC(=O)C(C)C(OC2CC(C)(OC)C(O)C(C)O2)C(C)C(OC2OC(C)CC(N(C)CCO)C2O)C2(C)CC(C)=C(O2)C(C)C(O)C1(C)O (stereo not drawn) [Compound 37] | > 100 | > 100 | > 100 | > 100 | > 100 | > 100
5 | CCC1OC(=O)C(C)C(OC2CC(C)(OC)C(O)C(C)O2)C(C)C(OC2OC(C)CC(N(C)CC)C2O)C2(C)CC(C)=C(O2)C(C)C(OC(C)=O)C1(C)OC(C)=O (stereo not drawn) [Compound 53] | > 100 | > 100 | > 100 | > 100 | > 100 | > 100
6 | CC[C@H]1OC(=O)[C@H](C)[C@@H](O[C@H]2C[C@@](C)(OC)[C@@H](O)[C@H](C)O2)[C@H](C)[C@@H](O[C@@H]2O[C@H](C)C[C@H]([N+](C)(C)C)[C@H]2O)[C@@]2(C)CC(C)C(O2)[C@H](C)[C@@H](O)[C@]1(C)O (stereo partly drawn) [Compound 62] | > 100 | > 100 | > 100 | > 100 | > 100 | > 100
7 | CCC1OC(=O)C(C)C(OC2CC(C)(OC)C(O)C(C)O2)C(C)C(OC2OC(C)CC([N+](C)(C)CC)C2O)C2(C)CC(C)=C(O2)C(C)C(O)C1(C)O (stereo not drawn) [Compound 5] | > 100 | > 100 | > 100 | > 100 | > 100 | > 100

The remaining lines, values ahead:

Row | MIC (Bacillus subtilis) [µg/mL] | MIC (Bacillus cereus IFO 3001) [µg/mL] | MIC (Escherichia coli NIHJ) [µg/mL] | MIC [1] [µg/mL] | MIC [2] [µg/mL] | MIC [3] [µg/mL] | SMILES
8 | > 100 | > 100 | > 100 | > 100 | > 100 | > 100 | C#CCN(CC=C)C1CC(C)OC(OC2C(C)C(OC3CC(C)(OC)C(O)C(C)O3)C(C)C(=O)OC(CC)C(C)(O)C(O)C(C)C3=C(C)CC2(C)O3)C1O (stereo not drawn) [Compound 42]
9 | > 100 | > 100 | > 100 | > 100 | > 100 | 100 | C#CC[N+](C)(CC=C)C1CC(C)OC(OC2C(C)C(OC3CC(C)(OC)C(O)C(C)O3)C(C)C(=O)OC(CC)C(C)(O)C(O)C(C)C3=C(C)CC2(C)O3)C1O (stereo not drawn) [Compound 44]
10 | 100 | 100 | > 100 | > 100 | 100 | 100 | C#CC[N+](C)(C)C1CC(C)OC(OC2C(C)C(OC3CC(C)(OC)C(O)C(C)O3)C(C)C(=O)OC(CC)C(C)(O)C(O)C(C)C3=C(C)CC2(C)O3)C1O (stereo not drawn) [Compound 27]
11 | > 100 | > 100 | > 100 | > 100 | > 100 | > 100 | CCC1OC(=O)C(C)C(OC2CC(C)(OC)C(OC=O)C(C)O2)C(C)C(OC2OC(C)CC([N+](C)(C)C)C2O)C2(C)CC(C)=C(O2)C(C)C(OS(C)(=O)=O)C1(C)O (stereo not drawn) [Compound 4]
12 | 100 | 100 | > 100 | > 100 | 100 | 100 | CCC1OC(=O)C(C)C(OC2CC(C)(OC)C(O)C(C)O2)C(C)C(OC2OC(C)CC([N+](C)(C)C)C2O)C2(C)CC(C)=C(O2)C(C)C(OC(C)=O)C1(C)OC(C)=O (stereo not drawn) [Compound 2]
13 | 6.25 | 6.25 | > 100 | > 100 | 12.5 | 25 | C#CC[N+](C)(C)[C@H]1C[C@@H](C)O[C@@H](O[C@@H]2[C@@H](C)[C@H](O[C@H]3C[C@@](C)(OC)[C@@H](O)[C@H](C)O3)[C@@H](C)C(=O)O[C@H](CC)[C@@](C)(O)[C@H](O)[C@@H](C)C(=O)[C@H](C)C[C@@]2(C)O)[C@@H]1O [Compound 78]
